Where two headings read alike, the source gives them in different places.
Columns and labels:
Assay type in all cases: physicochemical
[1] = Relaxivity analysis in water; conditions: degassed Millipore water, 0.05 to 1 mM complex
Description: (§1) The relaxivity measurements were performed with a range of 0.05 to 1 mM complex solutions on a Bruker Minispec PC 120b-NA 770, at 20 MHz or a Bruker Minispec Mq 60m at 60 MHz and 37° C. The solutions were obtained by dissolving the appropriate amount of chelate in degassed Millipore water or human serum.

[2] = Kinetic stability: exchange reaction with Zn2+ in acetate buffer, monitored by relaxivity; conditions: acetate buffer with Zn2+ challenge, acetate buffer 10 mM, 25° C., chelate approx. 0.5 mM, read-out: Dissociation Half life t1/2
Description: The kinetic stability of manganous chelates was characterized by the rates of exchange reaction with Zn^2+, in acetate buffer (10 mM) set to various pH. The increase of free manganous ions was monitored using a Bruker Minispec PC 120b-NA 770, at 20 MHz and 25° C. The total ionic strength was adjusted to 0.5M with KCl. The chelate concentration was approximately 0.5 mM for all measurements.
The change in concentration of chelated manganese, upon challenge with zinc ions, was monitored spectroscopically. When zinc displaces a manganous ion a net increase in relaxivity was observed as the free manganous ion has a relaxivity of ˜10 mM^−1s^−1, whereas the studied manganese chelates have a lower relaxivity.
The pseudo first-order rate constants (kobs) were calculated by fitting the relaxivity data to the following equation: […] in which At, A0, and Ae are the relaxivity values at time t, the start of the reaction, and at equilibrium, respectively. The dissociation half life was derived from kobs.

[3] = Relaxivity analysis in human serum; conditions: 0.05 to 1 mM complex
Description: as §1

[4] = Water exchange measurements (variable-temperature 17O NMR); conditions: TRIS 0.05 M pH 7.4, 6 to 15 mM complex
Description: Water Exchange Measurements
The water exchange measurements were performed with 6 to 15 mM complex solutions. The solutions were obtained by dissolving the appropriate amount of complex in 0.6 mL of buffer solution (TRIS, 0.05 M, pH 7.4 in degassed Millipore water at ca. 3 atom % ^17O-enrichment); Variable-temperature Fourier transform ^17O NMR spectra were recorded at a frequency of 40.7 MHz on a Varian Unity 300 MHz spectrometer. The temperatures were measured using methanol and ethylene glycol standards. The temperature dependence of the ^17O line broadening for each system was measured over a temperature range from 273.7 to 356.1 K. Each temperature was calibrated using a methanol or ethylene glycol standard.

Structure (SMILES)	Relaxivity Water @ 20 MHz, 37° C. [1]	half-life at 0.5 mM ([2]; pH 4.6, pH 4.6, [Zn] 10 mM)	half-life at 0.5 mM ([2]; pH 5, pH 5.0, [Zn] 10 mM)	half-life at 0.5 mM ([2]; pH 5.2, pH 5.2, [Zn] 10 mM)	half-life at 0.5 mM ([2]; pH 5.2, pH 5.2, [Zn] 20 mM)	half-life at 0.5 mM ([2]; pH 5.4, pH 5.4, [Zn] 10 mM)	half-life at 0.5 mM ([2]; pH 5.6, pH 5.6, [Zn] 10 mM)	half-life at 0.5 mM ([2]; pH 5.6, pH 5.6, [Zn] 20 mM)	Relaxivity Human Serum @ 60 MHz, 37° C. [3]	Water residence time [4]
O=C(O)CN1CCN2CC(=O)[O][Mn][O]C(=O)CN(CC1)Cc1cccc(n1)C2 [Compound disclosed in US5334371, reference compound]	1.3 mM⁻¹ s⁻¹									
O=C1CN2CCNCCN(CC(=O)[O][Mn][O]1)Cc1cccc(n1)C2 [Compound disclosed in US5334371, reference compound]		3 min	6 min	9 min	10 min	15 min	22 min	23 min		
CN1CCN2CC(=O)[O][Mn][O]C(=O)CN(CC1)Cc1cccc(n1)C2 [Example 1, manganese(II) complex of 3,6,9,15-tetraaza-3,9-bis-(carboxymethyl)-6-methyl-bicyclo[9.3.1]pentadeca-1(14),11(15),12-triene]	2.4 mM⁻¹ s⁻¹	10 min	21 min	30 min	37 min	44 min	72 min	77 min	4.6 mM⁻¹ s⁻¹	16 ns
CN1CCN2CC(=O)[O][Mn][O]C(=O)CN(CC1)Cc1cc(NC(=O)c3cc(C(=O)Nc4cc5nc(c4)CN4CCN(C)CCN(CC(=O)[O][Mn][O]C(=O)C4)C5)cc(C(=O)Nc4cc5nc(c4)CN4CCN(C)CCN(CC(=O)[O][Mn][O]C(=O)C4)C5)c3)cc(n1)C2 [Example 2, manganese(II) complex of N1,N3,N5-tris[3,6,9,15-tetraaza-3,9-bis-(carbonylmethyl)-6-methyl-bicyclo[9.3.1]pentadeca-13-trienyl]benzene-1,3,5-tricarboxamide]	3.8 mM⁻¹ s⁻¹								10.5 mM⁻¹ s⁻¹	14 ns
CN1CCN2CC(=O)[O][Mn][O]C(=O)CN(CC1)Cc1cc(NC(=O)c3ccccc3)cc(n1)C2 [Example 6, manganese complex of N,13-Benzamide-3,6,9,15-tetraaza-3,9-bis-(carboxymethyl)-6-methyl-bicyclo[9.3.1]pentadeca-1(14),11(15),12-triene]									8.8 mM⁻¹ s⁻¹	
